Test results taken from patent publication US9416144B2, “Benzoxazine oxazolidinone compound, preparation method and application thereof” (priority 2012, dated 2016).
≈ marks a conversion by molar mass, not a printed value.

Tests used:
Experiment in all cases: In vitro antibacterial activity, MIC by agar double dilution method
Assay type in all cases: cell-based
[1] = test system: Staphylococcus epidermidis resistant strains (5 strains); conditions: clinical isolates
Description: (§1) Experimental method: The agar double dilution method (Antimicrob. Agents and Chemother, 40, 1996, 720-726) was used to determine the minimum inhibitory concentration (MIC) of the series of compounds of the invention and the positive control drug linezolid for the test strains. The multipoint inoculation system (Denley A400) was employed to inoculate the bacteria on the agar plate surface with different concentrations of drugs; inoculation amount on each point was about 10^6 CFU/mL. The plates were incubated at 35° C. for 16 hrs before the results were observed. The lowest drug concentration contained in the Petri dish without bacterial growth was used as the minimum inhibitory concentration (MIC value) of the drug fir that strain.
(§2) Test strains: All the test strains were clinically isolated pathogens which were collected from the Nanjing region, and they were re-identified by routine methods before use. 31 strains of the clinically isolated pathogens were chosen, including 6 strains of Enterococcus, 5 Staphylococcus aureus sensitive strains; 5 Staphylococcus epidermidis sensitive strains; 6 Staphylococcus aureus resistant strains; 5 Staphylococcus epidermidis resistant strains; and 4 Streptococcus pneumoniae resistant strains.
(§3) Compounds to be tested were first added 2 ml of DMSO to help them fully dissolved, then added sterile double distilled water to the desired concentration; to all the Petri dish with added drug liquid were added 20 mL MIT medium which was heat-melted to be liquid-like, to make the final drug concentration in the Petri dish to be 64, 32, 16, 8, 4, 2, 1, 0.5, 0.25, 0.125, 0.0625, and 0.031 μg/mL.
(§4) The positive control group was LZ (linezolid, brand name Zyvox, approved by the FDA in 2000 to be firstly sold in the United States, which is the first and also the only one of oxazolidinone antibacterial drugs allowed to enter clinical application).

[2] = test system: Streptococcus pneumoniae resistant strains (4 strains); conditions: clinical isolates
Description: as §1, §2, §3, §4

[3] = test system: Staphylococcus aureus sensitive strains (5 strains); conditions: clinical isolates
Description: as §1, §2, §3, §4

[4] = test system: Staphylococcus aureus resistant strains (6 strains); conditions: clinical isolates
Description: as §1, §2, §3, §4

[5] = test system: Enterococcus (6 strains); conditions: clinical isolates, 35° C. 16 hrs
Description: as §1, §2, §3, §4

[6] = test system: Staphylococcus epidermidis sensitive strains (5 strains); conditions: clinical isolates
Description: as §1, §2, §3, §4

Structure (SMILES)	MIC [1] [µg/mL]	MIC [2] [µg/mL]	MIC [3] [µg/mL]	MIC [4] [µg/mL]	MIC [5] [µg/mL]	MIC [6] [µg/mL]
O=C1O[C@@H](CO)[C@@H]2COc3cc(-c4ccc(C(O)C5CC5)nc4)ccc3N12 (stereo partly drawn) [Compound 6, (3R,3aS)-7-(6-(cyclopropyl(hydroxyl)methyl)pyridin-3-yl)-3-(hydroxyl-methyl)-3a,4-dihydrobenzo[b]oxazolo[3,4-d][1,4]oxazin-1(3H)-one]	1 (≈ 2.71 µM)	1 to 2 (≈ 2.71 to 5.43 µM)	1 (≈ 2.71 µM)	1 to 2 (≈ 2.71 to 5.43 µM)	2 (≈ 5.43 µM)	0.5 to 1 (≈ 1.36 to 2.71 µM)
CC(C)(O)c1ccc(-c2ccc3c(c2)OC[C@H]2[C@H](CO)OC(=O)N32)cn1 [Compound 7, (3R,3aS)-3-(hydroxylmethyl)-7-(6-(2-hydroxylpropyl-2-yl)pyridin-3-yl)-3a,4-dihydrobenzo[b]oxazolo[3,4-d][1,4]oxazin-1(3H)-one]	2 (≈ 5.61 µM)	2 to 4 (≈ 5.61 to 11.2 µM)	1 to 4 (≈ 2.81 to 11.2 µM)	1 to 4 (≈ 2.81 to 11.2 µM)	4 (≈ 11.2 µM)	1 to 4 (≈ 2.81 to 11.2 µM)
CC(O)c1ccc(-c2ccc3c(c2)OC[C@H]2[C@H](CO)OC(=O)N32)cn1 (stereo partly drawn) [Compound 8, (3R,3aS)-7-(6-(1-hydroxylethyl)pyridin-3-yl)-3-(hydroxylmethyl)-3a,4-dihydrobenzo[b]oxazolo[3,4-d][1,4]oxazin-1(3H)-one]	1 to 2 (≈ 2.92 to 5.84 µM)	2 to 4 (≈ 5.84 to 11.7 µM)	1 to 2 (≈ 2.92 to 5.84 µM)	1 to 2 (≈ 2.92 to 5.84 µM)	2 to 4 (≈ 5.84 to 11.7 µM)	1 (≈ 2.92 µM)
O=C1O[C@@H](CO)[C@@H]2COc3cc(-c4ccc(CO)nc4)ccc3N12 [Compound 9, (3R,3aS)-3-(hydroxylmethyl)-7-(6-(hydroxylmethyl)pyridin-3-yl)-3a,4-dihydrobenzo[b]oxazolo[3,4-d][1,4]oxazin-1(3H)-one]	0.5 to 1 (≈ 1.52 to 3.05 µM)	2 to 4 (≈ 6.09 to 12.2 µM)	1 to 2 (≈ 3.05 to 6.09 µM)	1 to 2 (≈ 3.05 to 6.09 µM)	4 (≈ 12.2 µM)	0.5 (≈ 1.52 µM)
O=C1O[C@@H](CO)[C@@H]2COc3cc(-c4ccc(C5(O)CCCC5)nc4)ccc3N12 [Compound 10, (3R,3aS)-7-(6-(1-hydroxylcyclopentyl)pyridin-3-yl)-3-(hydroxylmethyl)-3a,4-dihydrobenzo[b]oxazolo[3,4-d][1,4]oxazin-1(3H)-one]	1 to 2 (≈ 2.61 to 5.23 µM)	2 (≈ 5.23 µM)	2 (≈ 5.23 µM)	1 to 2 (≈ 2.61 to 5.23 µM)	2 to 4 (≈ 5.23 to 10.5 µM)	1 to 2 (≈ 2.61 to 5.23 µM)
CN1CCN(c2ccc(-c3ccc4c(c3)OC[C@H]3[C@H](CO)OC(=O)N43)cn2)CC1 [Compound 12, (3R,3aS)-3-(hydroxylmethyl)7-(6-(4-methylpiperazin-1-yl)pyridin-3-yl)-3a,4-dihydrobenzo[b]oxazolo[3,4-d][1,4]oxazin-1(3H)-one]	4 (≈ 10.1 µM)	4 (≈ 10.1 µM)	2 to 4 (≈ 5.04 to 10.1 µM)	4 to 8 (≈ 10.1 to 20.2 µM)	2 to 4 (≈ 5.04 to 10.1 µM)	2 to 4 (≈ 5.04 to 10.1 µM)
CC(C)N1CC(c2ccc(-c3ccc4c(c3)OC[C@H]3[C@H](CO)OC(=O)N43)cn2)OC1=O (stereo partly drawn) [Compound 15, (3R,3aS)-3-(hydroxylmethyl)-7-(6-(3-isopropyl-2-oxazolidin-5-yl)pyridin-3-yl)-3a,4-dihydrobenzo[b]oxazolo[3,4-d][1,4]oxazin-1(3H)-one]	2 to 4 (≈ 4.7 to 9.4 µM)	2 (≈ 4.7 µM)	1 to 2 (≈ 2.35 to 4.7 µM)	1 to 2 (≈ 2.35 to 4.7 µM)	1 to 2 (≈ 2.35 to 4.7 µM)	1 to 2 (≈ 2.35 to 4.7 µM)
O=C1OC(c2ccc(-c3ccc4c(c3)OC[C@H]3[C@H](CO)OC(=O)N43)cn2)CN1Cc1ccccc1 (stereo partly drawn) [Compound 16, (3R,3aS)-7-(6-(3-benzyl-2-oxazolidin-5-yl)pyridin-3-yl)-3-(hydroxylmethyl)-3a,4-dihydrobenzo[b]oxazolo[3,4-d][1,4]oxazin-1(3H)-one]	2 to 4 (≈ 4.22 to 8.45 µM)	2 (≈ 4.22 µM)	1 to 2 (≈ 2.11 to 4.22 µM)	1 to 2 (≈ 2.11 to 4.22 µM)	1 to 2 (≈ 2.11 to 4.22 µM)	1 to 2 (≈ 2.11 to 4.22 µM)
Cn1nnc(-c2ccc(-c3ccc4c(c3)OC[C@H]3[C@H](CO)OC(=O)N43)cn2)n1 [Compound 17, (3R,3aS)-3-(hydroxylmethyl)-7-(6-(2-methyl-2H-tetrazol-5-yl)pyridin-3-yl)-3a,4-dihydrobenzo[b]oxazolo[3,4-d][1,4]oxazin-1(3H)-one]	1 to 2 (≈ 2.63 to 5.26 µM)	1 to 2 (≈ 2.63 to 5.26 µM)	1 to 4 (≈ 2.63 to 10.5 µM)	1 to 2 (≈ 2.63 to 5.26 µM)	4 (≈ 10.5 µM)	1 to 2 (≈ 2.63 to 5.26 µM)
O=C1COCCN1c1ccc(-c2ccc3c(c2)OC[C@H]2[C@H](CO)OC(=O)N32)cn1 [Compound 19, (3R,3aS)-3-(hydroxylmethyl)-7-(6-(3-oxomorpholin)pyridin-3-yl)-3a,4-dihydrobenzo[b]oxazolo[3,4-d][1,4]oxazin-1(3H)-one]	2 to 4 (≈ 5.03 to 10.1 µM)	2 to 4 (≈ 5.03 to 10.1 µM)	2 to 4 (≈ 5.03 to 10.1 µM)	2 to 4 (≈ 5.03 to 10.1 µM)	2 to 4 (≈ 5.03 to 10.1 µM)	1 to 2 (≈ 2.52 to 5.03 µM)
CN1CCN(c2ccc(-c3ccc4c(c3)OC[C@H]3[C@H](CO)OC(=O)N43)cn2)C(=O)C1 [Compound 20, (3R,3aS)-3-(hydroxylmethyl)-7-(6-(4-methyl-2-oxopiperazin-1-yl)pyridin-3-yl)-3a,4-dihydrobenzo[b]oxazolo[3,4-d][1,4]oxazin-1(3H)-one]	2 to 4 (≈ 4.87 to 9.75 µM)	4 to 8 (≈ 9.75 to 19.5 µM)	2 to 4 (≈ 4.87 to 9.75 µM)	2 to 4 (≈ 4.87 to 9.75 µM)	16 to 32 (≈ 39 to 78 µM)	2 to 4 (≈ 4.87 to 9.75 µM)
O=C1OC(CO)CN1c1ccc(-c2ccc3c(c2)OC[C@H]2[C@H](CO)OC(=O)N32)cn1 (stereo partly drawn) [Compound 24, (3R,3aS)-3-(hydroxylmethyl)-7-(6-(5-(hydroxylmethyl)-2-oxooxazolidin-3-yl)pyridin-3-yl)-3a,4-dihydrobenzo[b]oxazolo[3,4-d][1,4]oxazin-1(3H)-one]	0.5 to 1 (≈ 1.21 to 2.42 µM)	1 (≈ 2.42 µM)	0.5 to 1 (≈ 1.21 to 2.42 µM)	0.5 to 1 (≈ 1.21 to 2.42 µM)	0.5 to 1 (≈ 1.21 to 2.42 µM)	0.25 to 0.5 (≈ 0.605 to 1.21 µM)
O=C1O[C@H](CO)CN1c1ccc(-c2ccc3c(c2)OC[C@H]2[C@H](CO)OC(=O)N32)cn1 [Compound 25, (3R,3S)-3-(hydroxylmethyl)-7-(6-((S)-5-(hydroxylmethyl)-2-oxooxazolidin-3-yl)pyridin-3-yl)-3a,4-dihydrobenzo[b]oxazolo[3,4-d][1,4]oxazin-1(3H)-one]	0.5 to 1 (≈ 1.21 to 2.42 µM)	1 (≈ 2.42 µM)	0.5 to 1 (≈ 1.21 to 2.42 µM)	0.5 to 1 (≈ 1.21 to 2.42 µM)	0.5 to 1 (≈ 1.21 to 2.42 µM)	0.5 to 1 (≈ 1.21 to 2.42 µM)
O=C1O[C@@H](CO)CN1c1ccc(-c2ccc3c(c2)OC[C@H]2[C@H](CO)OC(=O)N32)cn1 [Compound 26, (3R,3aS)-3-(hydroxylmethyl)-7-(6-((R)-5-(hydroxylmethyl)-2-oxo-oxazolidin-3-yl)pyridin-3-yl)-3a,4-dihydrobenzo[b]oxazolo[3,4-d][1,4]oxazin-1(3H)-one]	0.5 to 1 (≈ 1.21 to 2.42 µM)	1 (≈ 2.42 µM)	0.5 to 1 (≈ 1.21 to 2.42 µM)	0.5 to 1 (≈ 1.21 to 2.42 µM)	0.5 to 1 (≈ 1.21 to 2.42 µM)	0.5 to 1 (≈ 1.21 to 2.42 µM)
CN1C[C@@H](c2ccc(-c3ccc4c(c3)OC[C@H]3[C@H](CO)OC(=O)N43)cn2)OC1=O [Compound 27, (3R,3aS)-3-(hydroxylmethyl)-7-(6-((R)-3-methyl-2-oxazolidin-5-yl)pyridin-3-yl)-3a,4-dihydrobenzo[b]oxazolo[3,4-d][1,4]oxazin-1(3H)-one]	0.5 to 1 (≈ 1.26 to 2.52 µM)	0.25 to 0.5 (≈ 0.629 to 1.26 µM)	1 (≈ 2.52 µM)	1 (≈ 2.52 µM)	1 (≈ 2.52 µM)	1 (≈ 2.52 µM)
CN1C[C@H](c2ccc(-c3ccc4c(c3)OC[C@H]3[C@H](CO)OC(=O)N43)cn2)OC1=O [Compound 28, (3R,3aS)-3-(hydroxylmethyl)-7-(6-((S)-3-methyl-2-oxazolidin-5-yl)pyridin-3-yl)-3a,4-dihydrobenzo[b]oxazolo[3,4-d][1,4]oxazin-1(3H)-one]	1 to 2 (≈ 2.52 to 5.03 µM)	2 (≈ 5.03 µM)	2 (≈ 5.03 µM)	2 (≈ 5.03 µM)	2 (≈ 5.03 µM)	2 (≈ 5.03 µM)
NC1(c2ccc(-c3ccc4c(c3)OC[C@H]3[C@H](CO)OC(=O)N43)cn2)CC1 [Compound 29, (3R,3aS)-7-(6-(1-aminocyclopropyl)pyridin-3-yl)-3-(hydroxylmethyl)-3a,4-dihydrobenzo[b]oxazolo[3,4-d][1,4]oxazin-1(3H)-one]	1 to 2 (≈ 2.83 to 5.66 µM)	1 to 2 (≈ 2.83 to 5.66 µM)	2 to 4 (≈ 5.66 to 11.3 µM)	1 (≈ 2.83 µM)	2 (≈ 5.66 µM)	1 (≈ 2.83 µM)
NCc1ccc(-c2ccc3c(c2)OC[C@H]2[C@H](CO)OC(=O)N32)cn1 [Compound 30, (3R,3aS)-7-(6-(aminomethyl)pyridin-3-yl)-3-(hydroxylmethyl)-3a,4-dihydrobenzo[b]oxazolo[3,4-d][1,4]oxazin-1(3H)-one]	0.5 to 4 (≈ 1.53 to 12.2 µM)	4 to 16 (≈ 12.2 to 48.9 µM)	2 to 4 (≈ 6.11 to 12.2 µM)	2 to 4 (≈ 6.11 to 12.2 µM)	4 to 8 (≈ 12.2 to 24.4 µM)	1 to 2 (≈ 3.05 to 6.11 µM)
O=C1CNCCN1c1ccc(-c2ccc3c(c2)OC[C@H]2[C@H](CO)OC(=O)N32)cn1 [Compound 31, (3R,3aS)-3-(hydroxylmethyl)-7-(6-(2-oxopiperazin-1-yl)pyridin-3-yl)-3a,4-dihydrobenzo[b]oxazolo[3,4-d][1,4]oxazin-1(3H)-one]	2 to 4 (≈ 5.05 to 10.1 µM)	4 (≈ 10.1 µM)	2 to 4 (≈ 5.05 to 10.1 µM)	2 to 4 (≈ 5.05 to 10.1 µM)	16 (≈ 40.4 µM)	2 to 4 (≈ 5.05 to 10.1 µM)
